Converted amounts (≈) assume the structure as drawn.
Test system: ANKA strain of P. berghei
Experiment: single dose STI in vivo screen in infected mice
Parameters: species or system Plasmodium berghei
Conditions: percent reduction in parasitemia day 3 post-infection; single 10 mg/kg po in 3% ethanol and 7% Tween 80; mice
Method in brief: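 Groups of 3-5 Moro SPF or NMRI mice infected with the ANKA strain of P. berghei received a single dose of trioxolane on day one post-infection. The compound was given in 3% ethanol and 7% Tween 80 or in SSV (0.5% w/v CMC, 0.5% v/v benzyl alcohol, 0.4% v/v Tween 80, 0.9% w/v sodium chloride in water). Antimalarial activity was scored as percent reduction in parasitemia on day three and as survival time versus untreated controls. Survival to day 30 counted as cure.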

| Structure (SMILES) | Activity (%) po |
| --- | --- |
| OC1(c2ccc(F)cc2)CCC2(CC1)OOC1(O2)C2CC3CC(C2)CC1C3 (stereo not shown) [OZ76] | 49% |
| CC(C)(C)CC(=O)N1CCC2(CC1)OOC1(O2)C2CC3CC(C2)CC1C3 (stereo not shown) [OZ111] | 98% |

Same assay, conditions: percent reduction in parasitemia day 3 post-infection; single 10 mg/kg po in 3% ethanol and 7% Tween 80; mice; 10 mg/kg

| Structure (SMILES) | Activity (%) po |
| --- | --- |
| OC12CC3CC(C1)C1(OOC4(CCC5(CC4)OCCO5)O1)C(C3)C2 (stereo not shown) [OZ152] | 0% |
| c1cn(C[C@H]2CC[C@]3(CC2)OOC2(O3)C3CC4CC(C3)CC2C4)cn1 (stereo partly shown) [OZ145] | 99.82% |
| NC[C@H]1CC[C@]2(CC1)OOC1(O2)C2CC3CC(C2)CC1C3 (stereo partly shown) [OZ163] | 99.90% |

Same assay, conditions: percent reduction in parasitemia day 3 post-infection; single 10 mg/kg sc in 3% ethanol and 7% Tween 80; mice

| Structure (SMILES) | Activity (%) sc |
| --- | --- |
| NC[C@H]1CC[C@]2(CC1)OOC1(O2)C2CC3CC(C2)CC1C3 (stereo partly shown) [OZ163] | 100% |
| OC1(c2ccc(F)cc2)CCC2(CC1)OOC1(O2)C2CC3CC(C2)CC1C3 (stereo not shown) [OZ76] | 94% |
| CC(C)(C)CC(=O)N1CCC2(CC1)OOC1(O2)C2CC3CC(C2)CC1C3 (stereo not shown) [OZ111] | 99.94% |

Same assay, conditions: percent reduction in parasitemia day 3 post-infection; single 10 mg/kg sc in 3% ethanol and 7% Tween 80; mice; 10 mg/kg

| Structure (SMILES) | Activity (%) sc |
| --- | --- |
| OC12CC3CC(C1)C1(OOC4(CCC5(CC4)OCCO5)O1)C(C3)C2 (stereo not shown) [OZ152] | 22% |
| c1cn(C[C@H]2CC[C@]3(CC2)OOC2(O3)C3CC4CC(C3)CC2C4)cn1 (stereo partly shown) [OZ145] | 99.87% |

Same assay, conditions: percent reduction in parasitemia day 3 post-infection; single po dose in standard suspending vehicle (SSV); mice

| Structure (SMILES) | Activity (%) SSVpo |
| --- | --- |
| OC12CC3CC(C1)C1(OOC4(CCC5(CC4)OCCO5)O1)C(C3)C2 (stereo not shown) [OZ152] | 12% |
| c1cn(C[C@H]2CC[C@]3(CC2)OOC2(O3)C3CC4CC(C3)CC2C4)cn1 (stereo partly shown) [OZ145] | 99.21% |
| NC[C@H]1CC[C@]2(CC1)OOC1(O2)C2CC3CC(C2)CC1C3 (stereo partly shown) [OZ163] | 99.94% |
| CC(C)(C)CC(=O)N1CCC2(CC1)OOC1(O2)C2CC3CC(C2)CC1C3 (stereo not shown) [OZ111] | 79% |

Same assay, conditions: single 10 mg/kg po in 3% ethanol and 7% Tween 80; untreated control 5.6 ± 0.3

| Structure (SMILES) | Survival (days) po |
| --- | --- |
| OC12CC3CC(C1)C1(OOC4(CCC5(CC4)OCCO5)O1)C(C3)C2 (stereo not shown) [OZ152] | 6.3 days |
| OC1(c2ccc(F)cc2)CCC2(CC1)OOC1(O2)C2CC3CC(C2)CC1C3 (stereo not shown) [OZ76] | 6.3 days |
| CC(C)(C)CC(=O)N1CCC2(CC1)OOC1(O2)C2CC3CC(C2)CC1C3 (stereo not shown) [OZ111] | 7.7 days |

Same assay, conditions: single 10 mg/kg po in 3% ethanol and 7% Tween 80; untreated control 5.6 ± 0.3; 10 mg/kg

| Structure (SMILES) | Survival (days) po |
| --- | --- |
| c1cn(C[C@H]2CC[C@]3(CC2)OOC2(O3)C3CC4CC(C3)CC2C4)cn1 (stereo partly shown) [OZ145] | 8.3 days |
| NC[C@H]1CC[C@]2(CC1)OOC1(O2)C2CC3CC(C2)CC1C3 (stereo partly shown) [OZ163] | 8.0 days |

Same assay, conditions: single 10 mg/kg sc in 3% ethanol and 7% Tween 80; untreated control 5.6 ± 0.3

| Structure (SMILES) | Survival (days) sc |
| --- | --- |
| OC1(c2ccc(F)cc2)CCC2(CC1)OOC1(O2)C2CC3CC(C2)CC1C3 (stereo not shown) [OZ76] | 8.0 days |
| CC(C)(C)CC(=O)N1CCC2(CC1)OOC1(O2)C2CC3CC(C2)CC1C3 (stereo not shown) [OZ111] | 8.3 days |

Same assay, conditions: single 10 mg/kg sc in 3% ethanol and 7% Tween 80; untreated control 5.6 ± 0.3; 10 mg/kg

| Structure (SMILES) | Survival (days) sc |
| --- | --- |
| OC12CC3CC(C1)C1(OOC4(CCC5(CC4)OCCO5)O1)C(C3)C2 (stereo not shown) [OZ152] | 6.7 days |
| c1cn(C[C@H]2CC[C@]3(CC2)OOC2(O3)C3CC4CC(C3)CC2C4)cn1 (stereo partly shown) [OZ145] | 10.7 days |
| NC[C@H]1CC[C@]2(CC1)OOC1(O2)C2CC3CC(C2)CC1C3 (stereo partly shown) [OZ163] | 9.7 days |

Same assay, conditions: single po dose in SSV; untreated control 5.6 ± 0.3

| Structure (SMILES) | Survival (days) SSVpo |
| --- | --- |
| OC12CC3CC(C1)C1(OOC4(CCC5(CC4)OCCO5)O1)C(C3)C2 (stereo not shown) [OZ152] | 6.7 days |
| c1cn(C[C@H]2CC[C@]3(CC2)OOC2(O3)C3CC4CC(C3)CC2C4)cn1 (stereo partly shown) [OZ145] | 10.7 days |
| NC[C@H]1CC[C@]2(CC1)OOC1(O2)C2CC3CC(C2)CC1C3 (stereo partly shown) [OZ163] | 9.0 days |
| CC(C)(C)CC(=O)N1CCC2(CC1)OOC1(O2)C2CC3CC(C2)CC1C3 (stereo not shown) [OZ111] | 6.3 days |

Test system: Schistosoma mansoni adult schistosomes (49-day-old)
Experiment: effect on adult schistosomes (49-day-old) in mice
Assay type: in vivo
Conditions: single 400 mg/kg per os
Description: Mice were infected with 100 Schistosoma mansoni cercariae […]. Each group was treated per os with OZ compounds at single doses of 200, 400, and 600 mg/kg. […] All groups were killed 4 weeks after treatment and the liver and intestine were removed and separated. The liver and intestine were compressed and alive male and female worms could be seen and counted.

| Structure (SMILES) | % reduction of adult worms growth at day 49 after per os application of 400 mg/kg, TWR (%) | adult worms at day 49, per os 400 mg/kg, DEAD WORM (%) |
| --- | --- | --- |
| OC1(c2ccc(F)cc2)CCC2(CC1)OOC1(O2)C2CC3CC(C2)CC1C3 (stereo not shown) [OZ76] | 32% | 0% |

Test system: P. falciparum NF54 strain (sensitive to standard antimalarials)
Experiment: semiautomated microdilution assay, [3H]-hypoxanthine incorporation, NF54 strain
Assay type: cell-based, Plasmodium falciparum
Conditions: NF54 strain, 72 h incubation
Method in brief: (§1)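 IC50 values come from logit regression of semiautomated microdilution data obtained on intraerythrocytic parasites drawn from asynchronous cultures.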

| Structure (SMILES) | IC50 (ng/ml) NF54 |
| --- | --- |
| OC12CC3CC(C1)C1(OOC4(CCC5(CC4)OCCO5)O1)C(C3)C2 (stereo not shown) [OZ152] | 7.2 ng/mL (≈ 21.3 nM) |
| c1cn(C[C@H]2CC[C@]3(CC2)OOC2(O3)C3CC4CC(C3)CC2C4)cn1 (stereo partly shown) [OZ145] | 0.76 ng/mL (≈ 2.21 nM) |
| NC[C@H]1CC[C@]2(CC1)OOC1(O2)C2CC3CC(C2)CC1C3 (stereo partly shown) [OZ163] | 0.2/0.2 ng/ml |
| OC1(c2ccc(F)cc2)CCC2(CC1)OOC1(O2)C2CC3CC(C2)CC1C3 (stereo not shown) [OZ76] | 3.0 ng/mL (≈ 8.01 nM) |

Test system: Schistosoma mansoni 21-day-old schistosomules
Experiment: effect on 21-day-old schistosomules in mice
Assay type: in vivo
Conditions: single 200 mg/kg per os, female mice
Description: All groups were killed 4 weeks after treatment and the liver and intestine were removed and separated. The liver and intestine were compressed and alive male and female worms could be seen and counted. The effect of the compounds was evaluated by mean total and female worm burden.

| Structure (SMILES) | % reduction of schistosomule growth at day 21 after per os application of 200 mg/kg, FWR (%) | % reduction of schistosomule growth at day 21 after per os application of 200 mg/kg, TWR (%) |
| --- | --- | --- |
| OC12CC3CC(C1)C1(OOC4(CCC5(CC4)OCCO5)O1)C(C3)C2 (stereo not shown) [OZ152] | 11% | 19% |
| c1cn(C[C@H]2CC[C@]3(CC2)OOC2(O3)C3CC4CC(C3)CC2C4)cn1 (stereo partly shown) [OZ145] | 83% | 80% |
| NC[C@H]1CC[C@]2(CC1)OOC1(O2)C2CC3CC(C2)CC1C3 (stereo partly shown) [OZ163] | 80% |  |
| CC(C)(C)CC(=O)N1CCC2(CC1)OOC1(O2)C2CC3CC(C2)CC1C3 (stereo not shown) [OZ111] | 68% | 71% |

Test system: P. falciparum K1 strain (Thailand resistant to chloroquine)
Experiment: semiautomated microdilution assay, [3H]-hypoxanthine incorporation, K1 strain
Assay type: cell-based, Plasmodium falciparum
Conditions: K1 strain, 72 h incubation
Method in brief: as §1

| Structure (SMILES) | IC50 (ng/ml) K1 |
| --- | --- |
| OC12CC3CC(C1)C1(OOC4(CCC5(CC4)OCCO5)O1)C(C3)C2 (stereo not shown) [OZ152] | 3.2 ng/mL (≈ 9.46 nM) |
| c1cn(C[C@H]2CC[C@]3(CC2)OOC2(O3)C3CC4CC(C3)CC2C4)cn1 (stereo partly shown) [OZ145] | 0.50 ng/mL (≈ 1.45 nM) |
| NC[C@H]1CC[C@]2(CC1)OOC1(O2)C2CC3CC(C2)CC1C3 (stereo partly shown) [OZ163] | 0.2/0.2 ng/ml |
| OC1(c2ccc(F)cc2)CCC2(CC1)OOC1(O2)C2CC3CC(C2)CC1C3 (stereo not shown) [OZ76] | 1.7 ng/mL (≈ 4.54 nM) |
| CC(C)(C)CC(=O)N1CCC2(CC1)OOC1(O2)C2CC3CC(C2)CC1C3 (stereo not shown) [OZ111] | 0.92 ng/mL (≈ 2.53 nM) |
